Measurements reported in patent publication US20260207717A1, “METHODS FOR TREATING INFANTILE-ONSET POMPE DISEASE IN PEDIATRIC PATIENTS” (Amicus Therapeutics, Inc., priority 2022, published 2026).
Read-outs that look alike come from different tables or passages of the source.

Experiments:
[1] = Miglustat plasma pharmacokinetics; format: in vivo, human; conditions: 130 mg to 260 mg
Procedure: At the recommended 260 mg dose, the mean Cmax was approximately 3 mcg/mL and the mean AUC was approximately 25 mcg*hr/mL. The mean time to reach the maximum concentration ranged from 2 hours to 3 hours.

clinical = conditions: human, in vivo
Procedure: At 10Y7M of age, the blood of the patient was collected to gather pharmacokinetic (PK) data for their treatment that included weekly administration of 20 mg/kg ATB200 and 130 mg AT2221.
Blood sampling of the patient was conducted to gather pharmacokinetic (PK) data for their treatment that included administration of 25 mg/kg ATB200 and 195 mg AT2221 biweekly.
At 12Y5M of age, the patient has been receiving ATB200 (20 mg/kg) and AT2221 (195 mg) biweekly for 1 year. […] At this time, the PK levels of both ATB200 and AT2221 were taken from the patient.

CIMPR = CIMPR (Homo sapiens, UniProt P11717); test: CIMPR affinity chromatography (bound vs unbound rhGAA by GAA activity); format: binding
Excerpt: Multiple batches of the rhGAA according to the disclosure were produced in shake flasks and in perfusion bioreactors using CHO cell line GA-ATB200, the product of which is referred to as “ATB200.” Weak anion exchange (“WAX”) liquid chromatography was used to fractionate ATB200 rhGAA according to terminal phosphate and sialic acid. Elution profiles were generated by eluting the ERT with increasing amount of salt. The profiles were monitored by UV (A280 nm).
To evaluate the ability of the conventional rhGAAs in MYOZYME® and LUMIZYME® to interact with the CIMPR, the two conventional rhGAA preparations were injected onto a CIMPR affinity column (which binds rhGAA having M6P groups) and the flow through collected. The bound material was eluted with a free M6 gradient. Fractions were collected in 96-well plate and GAA activity assayed by 4MU-α-glucosidase substrate. The relative amounts of unbound (flow through) and bound (M6P eluted) rhGAA were determined based on GAA activity and reported as the fraction of total enzyme. […] Indeed, only 27% of the rhGAA in MYOZYME® and 22% of the rhGAA in LUMIZYME® contained M6P that can be productive to target it to the CIMPR on muscle cells.

[2] = test system: single fibers isolated from the white gastrocnemius of Gaa KO mice; test: Single fiber analysis (LAMP1/LC3 co-immunofluorescence); format: in vivo
Excerpt: FIG. 17 depicts co-immunofluorescent staining of LAMP1 (green) (see for example, “B”) and LC3 (red) (see, for example, “A”) in single fibers isolated from the white gastrocnemius of Gaa KO mice treated with a vehicle, alglucosidase alfa, or ATB200. “C” depicts clearance of autophagic debris and absence of enlarged lysosome. A minimum of 30 fibers were examined from each animal.
As a result, a significant portion of muscle fibers analyzed (36-60%) from ATB200-treated mice appeared normal or near-normal.

[3] = test system: pediatric patient with infantile Pompe disease; test: Example 16: pediatric IOPD patient switched from Myozyme to ATB200/AT2221; format: in vivo, human
Excerpt: A patient with severe infantile Pompe disease presented. The patient underwent a comprehensive physical examination, measurement of GAA enzyme activity, genetic testing of the GAA gene and muscle biopsy to establish the diagnosis.
The patient received the high-dose enzyme replacement therapy with Myozyme after diagnosis. The patient responded very poorly to therapy. Due to rapidly progressing Pompe disease and inadequate response to therapy, the patient's survival was at risk. For the patient, the opportunity arose to receive the new ATB200/AT2221 ERT via a compassionate use/Expanded Access Program (EAP).
The index patient has regular measurement of the urinary Glc4-levels since the change of the ERT to ATB200. The Glc4-levels were determined by an established method from the Duke University. The analysis of Glc4 is standardized as a butyl-4-aminobenzoate derivative using [^13C6] Glc4 as the internal standard (IS). The measurement is performed as ultra-performance liquid chromatography-tandem mass spectrometry (UPLC-MS/MS). The Glc4-values are then normalized to creatinine.
The patient presented with IOPD at 6 months and was started on the standard dose of Myozyme (20 mg/kg/bi-weekly). Due to the inadequate response to therapy, the dose was doubled just one month after the start of therapy in form of a weekly administration of Myozyme. […] But the cardiological situation deteriorated progressively.
Therefore, just three months after initiation of therapy, the dose was again doubled to 40 mg/kg/weekly, so the patient received a total of four times the standard dose. With the intensification of ERT and cardiac therapy, the patient's condition initially stabilized. Nevertheless, over the next few months, the patient's general condition steadily deteriorated, and the patient decompensated, especially respiratory.
The patient was switched from Myozyme to ATB200/AT2221 after eight months of insufficient Myozyme therapy response. The patient was […] at the time of the therapy switch. The new therapy (via EAP) was initiated with the oral administration of 30 mg premedication AT2221 (Miglustat) one hour prior to enzyme administration. ATB200 was administered at a bi-weekly interval at a dosage of 20 mg/kg. In the further course of treatment, the dosage of premedication and ERT was repeatedly adjusted and optimized (see Table 22). Some actual dosages in Table 22 (e.g., 37 mg/kg and 34.5 mg/kg at 32 and 38 months, respectively) varied from the target dose (e.g., 30 mg/kg) to avoid waste of extra material left in vials.
The Gross Motor Function Measure 66 (GMFM 66) is used to quantify a patients' motor skills. The GMFM 66 is a worldwide standardized test developed and validated for children with cerebral palsy to measure the development of gross motor function over time. During testing 66 items are examined and a score from 0 to 100 points is possible.

pediatric IOPD patient [4] = format: in vivo, human
Procedure: The patient, first-born of unrelated parents […]), was born at 37 weeks by an emergency delivery due to fetal heart failure. At birth, they were resuscitated and admitted to the NICU for invasive ventilatory assistance and circulation support.
Moreover, the patient presented with severe hypotonia, elevated serum CPK (1063 U/L) and BNP ([…], nv 0-100).
At 3 days of life, an extended newborn screening resulted positive for Pompe Disease (GAA activity in DBS 0.40 μM/L, nv>3). uGlc4 was elevated (71.2 mmol/mol creatinine, nv <16.3).
At 5 days of life, the patient was treated with alglucosidase alfa (Myozyme®). Simultaneously, an immunomodulation protocol with rituximab, ev immunoglobulins and methotrexate was started. In addition, an appropriate therapy for the heart failure was started (betablocker, diuretics, ACE inhibitor).
At 2.5 years of life, they started a compassionate use/EAP therapy that combined a new ERT (cipaglucosidase 30 mg/kg/week) with an enzyme stabilizer (miglustat 115 mg) (ATB200-15 Program, Amicus Therapeutics), with clinical benefit.

pediatric IOPD patient [5] = test system: pediatric IOPD patient
[6] = after new immunomodulation cycle, on Myozyme
[7] = worsening with high antibody titer, on Myozyme
[8] = age ~1 week, Myozyme double dose 40 mg/kg q2wk

CIMPR, sequence (P11717 41-2491, species assumed): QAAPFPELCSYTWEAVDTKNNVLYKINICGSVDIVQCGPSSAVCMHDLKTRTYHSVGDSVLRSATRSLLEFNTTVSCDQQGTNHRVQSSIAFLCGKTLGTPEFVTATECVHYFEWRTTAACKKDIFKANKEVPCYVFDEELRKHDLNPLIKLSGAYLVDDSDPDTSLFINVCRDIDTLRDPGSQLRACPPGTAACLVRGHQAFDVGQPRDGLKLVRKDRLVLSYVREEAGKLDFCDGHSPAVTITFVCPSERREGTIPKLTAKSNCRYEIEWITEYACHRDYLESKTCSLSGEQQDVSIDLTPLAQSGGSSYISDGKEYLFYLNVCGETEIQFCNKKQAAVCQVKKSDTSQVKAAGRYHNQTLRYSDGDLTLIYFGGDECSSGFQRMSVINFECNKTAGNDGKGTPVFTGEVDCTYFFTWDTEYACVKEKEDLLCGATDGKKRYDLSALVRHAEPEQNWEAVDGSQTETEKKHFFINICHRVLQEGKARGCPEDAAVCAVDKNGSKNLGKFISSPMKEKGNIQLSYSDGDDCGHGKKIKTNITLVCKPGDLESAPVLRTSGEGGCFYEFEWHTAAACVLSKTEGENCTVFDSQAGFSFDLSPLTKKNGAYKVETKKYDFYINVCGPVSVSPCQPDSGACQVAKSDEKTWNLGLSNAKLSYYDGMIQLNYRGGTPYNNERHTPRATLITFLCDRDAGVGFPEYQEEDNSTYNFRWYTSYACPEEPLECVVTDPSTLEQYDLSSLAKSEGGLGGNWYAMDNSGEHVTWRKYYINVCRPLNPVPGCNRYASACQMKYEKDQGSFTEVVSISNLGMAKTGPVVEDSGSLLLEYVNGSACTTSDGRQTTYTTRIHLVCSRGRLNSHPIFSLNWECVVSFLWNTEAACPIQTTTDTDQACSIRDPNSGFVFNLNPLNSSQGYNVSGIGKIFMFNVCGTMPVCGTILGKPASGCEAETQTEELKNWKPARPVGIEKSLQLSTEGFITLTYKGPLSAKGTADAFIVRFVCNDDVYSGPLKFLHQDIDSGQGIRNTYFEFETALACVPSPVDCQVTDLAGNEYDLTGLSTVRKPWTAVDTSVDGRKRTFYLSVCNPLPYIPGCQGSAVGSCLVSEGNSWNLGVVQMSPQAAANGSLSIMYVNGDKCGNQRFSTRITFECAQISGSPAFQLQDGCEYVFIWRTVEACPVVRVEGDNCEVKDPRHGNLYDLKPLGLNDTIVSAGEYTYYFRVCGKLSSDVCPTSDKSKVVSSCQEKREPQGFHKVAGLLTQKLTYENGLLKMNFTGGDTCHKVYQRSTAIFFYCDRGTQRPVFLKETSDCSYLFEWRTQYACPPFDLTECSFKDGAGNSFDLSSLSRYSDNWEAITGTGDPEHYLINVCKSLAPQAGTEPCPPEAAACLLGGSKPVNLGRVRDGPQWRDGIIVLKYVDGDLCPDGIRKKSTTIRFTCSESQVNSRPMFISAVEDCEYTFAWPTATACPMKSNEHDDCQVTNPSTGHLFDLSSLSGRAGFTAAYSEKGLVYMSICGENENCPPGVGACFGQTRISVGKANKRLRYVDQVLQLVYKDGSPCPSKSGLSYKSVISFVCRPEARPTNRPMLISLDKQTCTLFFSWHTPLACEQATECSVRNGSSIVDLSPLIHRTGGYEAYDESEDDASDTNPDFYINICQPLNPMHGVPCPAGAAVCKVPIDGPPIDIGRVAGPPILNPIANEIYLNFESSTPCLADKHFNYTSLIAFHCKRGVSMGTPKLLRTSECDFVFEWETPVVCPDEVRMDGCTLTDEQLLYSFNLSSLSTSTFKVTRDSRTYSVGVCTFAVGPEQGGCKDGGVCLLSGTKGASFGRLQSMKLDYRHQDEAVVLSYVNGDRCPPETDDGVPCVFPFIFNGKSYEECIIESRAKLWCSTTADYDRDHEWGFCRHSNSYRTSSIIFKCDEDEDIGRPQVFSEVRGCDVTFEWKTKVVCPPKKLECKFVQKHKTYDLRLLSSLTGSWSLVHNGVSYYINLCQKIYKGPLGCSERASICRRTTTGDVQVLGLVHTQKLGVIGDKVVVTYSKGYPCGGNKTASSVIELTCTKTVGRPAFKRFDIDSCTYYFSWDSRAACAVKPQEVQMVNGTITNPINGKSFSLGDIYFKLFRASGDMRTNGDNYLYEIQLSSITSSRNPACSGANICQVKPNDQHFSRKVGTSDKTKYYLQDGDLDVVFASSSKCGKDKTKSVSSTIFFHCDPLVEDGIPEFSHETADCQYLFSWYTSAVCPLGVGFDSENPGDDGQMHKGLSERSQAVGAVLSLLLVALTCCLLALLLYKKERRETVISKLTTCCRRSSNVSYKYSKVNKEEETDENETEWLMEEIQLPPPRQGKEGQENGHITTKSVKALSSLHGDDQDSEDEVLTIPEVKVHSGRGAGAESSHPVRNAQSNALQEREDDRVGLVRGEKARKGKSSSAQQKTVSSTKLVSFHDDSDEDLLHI

CCCCN1C[C@H](O)[C@@H](O)[C@H](O)[C@H]1CO [miglustat, (2R,3R,4R,5S)-1-butyl-2-(hydroxymethyl)piperidine-3,4,5-triol, reference compound]
dose proportionality of AUC and Cmax [1]: linear pharmacokinetics
AUC relative to adult percentiles (clinical): below the adult 10th percentile
Cmax relative to adult percentiles (clinical): within the adult 10th-90th percentile
AUC (clinical; AT2221 AUC): 16100 to 24600 ng·h/mL
Cmax (clinical; AT2221 Cmax): 1800 to 3130 ng/mL

MYOZYME®: conventional rhGAA product containing alglucosidase alfa
rhGAA that binds to the CIMPR (contains M6P) (CIMPR; fraction of total enzyme by GAA activity): 27%
rhGAA that did not bind to the CIMPR (CIMPR; fraction of total enzyme by GAA activity (FIG. 9A, 9B)): 73%
lysosome size and autophagic buildup compared to vehicle-treated mice [2]: did not show any significant difference
motor function ([3]; 20 mg/kg/weekly): slight motor improvements
response to therapy ([3]; fourfold dose of ERT (40 mg/kg/weekly)): very poor
CPK (pediatric IOPD patient [4]; [6]): 4,728 U/L
EF (pediatric IOPD patient [4]; [6]): 48%
LVMI (pediatric IOPD patient [4]; [6]): 118 g/m2
uGlc4 (pediatric IOPD patient [4]; [6]): 35 mmol/mol crea
CPK (pediatric IOPD patient [4]; on Myozyme): 1877 u/L
EF (pediatric IOPD patient [4]; on Myozyme): 50%
uGlc4 (pediatric IOPD patient [4]; on Myozyme): 20.2 mmol/mol crea
LVMI (pediatric IOPD patient [4]; on Myozyme since day 5): 116.6 g/m2
BNP (pediatric IOPD patient [4]; [7]): 237 U/L
EF (pediatric IOPD patient [4]; [7]): 50%
LVMI (pediatric IOPD patient [4]; [7]): 229 g/m2
serum CPK, maximum (pediatric IOPD patient [4]; [7]): 6,795 U/L
uGlc4, maximum (pediatric IOPD patient [4]; [7]): 50 mmol/mol creatinine
CK (pediatric IOPD patient [5]; Myozyme 50 mg/kg q2wk): 2514-2722 U/L
CK (pediatric IOPD patient [5]; Myozyme 60 mg/kg q2wk): 3143-3625 U/L
LVEF (pediatric IOPD patient [5]; Myozyme 60 mg/kg q2wk, 2 D): 70.5%
LVMI (pediatric IOPD patient [5]; Myozyme 60 mg/kg q2wk, 2 D): 26.2 g/m^2
CK (pediatric IOPD patient [5]; Myozyme 30 then 40 mg/kg qwk): 2603 U/L
Pro-BNP (pediatric IOPD patient [5]; Myozyme 30 then 40 mg/kg qwk): 401.5 pg/mL
CK (pediatric IOPD patient [5]; [8]): 880 U/L
Glc4 (pediatric IOPD patient [5]; [8]): 41.88 mmol/mol CRE
Pro-BNP (pediatric IOPD patient [5]; [8]): 10169 pg/mL
LVMI (pediatric IOPD patient [5]; age ~1 week, Myozyme double dose 40 mg/kg q2wk, M-mode): 147 g/m^2
CK (pediatric IOPD patient [5]; change to ATB200 20 mg/kg q2w): 1444 U/L
reactions on ERT (pediatric IOPD patient [5]; human, in vivo): skin rash, dyspnea, a cough and a pale-like complexion
